This is an account of results in patent publication US20240217973A1, “IMIDAZOPYRIDINE COMPOUNDS AND USE THEREOF” (MEDSHINE DISCOVERY INC., priority 2021, published 2024).

The target in data set [1] is BTK kinase (Homo sapiens (Human), UniProt Q06187). Description: BTK kinase experiment (ADP-Glo). In kind it is biochemical. The following applies: 2 μM ATP, PolyE4Y1 substrate, 30 minutes pre-incubation. Here is the method:
BTK kinase, PolyE4Y1 substrate and Kinase assay buffer III were purchased from Signalchem; ADP-Glo Kinase Assay was purchased from Promega; Nivo multi-label analyzer (PerkinElmer).
1× buffer preparation (which was prepared and used immediately): Kinase assay buffer III was diluted with ddH2O to 1× assay buffer for later use.
The compound to be tested was diluted with 100% DMSO to 10 μM as the first concentration, and followed by a 5-fold dilution to the 8th concentration using a multi-channel pipette, i.e., it was diluted from 10 μM to 0.128 nM.
Each gradient of the compound to be tested was diluted into a working solution with 5% DMSO using 1× buffer, 1 μL/well was added to the corresponding well, and a double-replicate well experiment was set up. 2 μL of BTK enzyme (4 ng) was add to each well and incubating at 25° C. for 30 minutes. After the incubation was completed, 2 μL of a mixture of substrate and ATP (2 μM ATP, 0.2 μg/μL PolyE4Y1) was added to each well and incubating at 25° C. for 120 minutes. At this point, the final concentration gradient of the compound was diluted from 100 nM to 0.00128 nM. After the reaction was completed, 5 μL of ADP-Glo reagent was added to each well, and the reaction continued at 25° C. for 40 minutes. After the reaction was completed, 10 μL of kinase detection reagent was added to each well. After reacting at 25° C. for 30 minutes, PerkinElmer Nivo multi-label analyzer was used to read the chemiluminescence, and the integration time was 0.5 seconds.
Raw data was converted into inhibition rate using the equation: (Sample−Min)/(Max−Min)*100%. The IC50 value could then be derived by performing a curve fit using four-parameter (which was obtained using the “log(inhibitor) vs. response-Variable slope” mode in GraphPad Prism).

The subject of data set [2] is plasma proteins. The data set is described as follows: Plasma protein binding experiment (PPB), R. In kind it is in vitro ADME, rat. Particulars: 2 μM, 4 hours dialysis. As for the experimental part: Experimental operation: 995 μL of blank plasma of each genus was taken, 5 μL of working solution of test compound (400 μM) or working solution of warfarin (400 μM) was added, so that the final concentrations of the test compound and warfarin in the plasma sample was 2 μM. The sample was mixed thoroughly. The final concentration of the organic phase DMSO was 0.5%; 50 μL of plasma samples of the test compound and warfarin were pipetted into the sample receiving plate (three parallels), and the corresponding volume of the corresponding blank plasma or buffer was immediately added so that the final volume of each sample well was 100 μL, with a volume ratio of 1:1 for plasma: dialysis buffer, and then 500 μL of stop solution was added to these samples, and these samples would be used as a T0 sample for the recovery and stability determination. […] All samples were analyzed by LC/MS/MS after protein precipitation, and the protein binding rate and recovery rate were calculated by the formula: % Unbound=100*F/T, % Bound=100−% Unbound, % Recovery 100*(F+T) T0 (where F was the peak area ratio of the compound in the dialysate after 4 hours of dialysis; T was the peak area ratio of the compound in the plasma after 4 hours of dialysis, and T0 was the peak area ratio of the compound in the plasma sample at zero time).

Data set [3] deals with HPBMC cells. The data set is described as follows: HPBMC experiment: CD69 on anti-human IgM stimulated B cells, flow cytometry. In kind it is cell-based. Particulars: B-cell, B cells isolated from PBMC, 48 hours. As for the experimental part:
• 1) Medium: RPMI Medium 1640+1% P/S+10% FBS • 2) MACS buffer: 2% FBS+1 mM EDTA in DPBS • 3) Staining buffer: DPBS+2% FBS • 1.2 Dilution of Compounds and Anti-Human IgM
The initial concentration of the compound to be tested was […], 3-fold dilution, 9 points, and it was added to a 96 well plate after dilution, 50 μL/ well.
The anti-human IgM was diluted according to Table 2 below, and added to the 96 well plate after dilution, 50 μL/well.
• 1) PBMC was removed from a liquid nitrogen tank, then resuscitated and thawed in a 37° C. water bath; • 2) Using a B cell olation kit, B cells were isolated from PBMC according to the instructions, and their viability and number were calculated using a cell counter.
Table 10 Number and viability of PBMC and B cells • 3) The cells were resuspended with 1640 culture medium to a final concentration of 1 M/mL. • 4) The B cells were spread at 0.1 M/ well (100 μL) into a 96-well flat-bottom plate already containing the compound and anti-IgM. • 5) The plate was incubated in a 37° C. CO2 incubator for 48 hours; […]

Chain of BTK kinase (Q06187 whole entry): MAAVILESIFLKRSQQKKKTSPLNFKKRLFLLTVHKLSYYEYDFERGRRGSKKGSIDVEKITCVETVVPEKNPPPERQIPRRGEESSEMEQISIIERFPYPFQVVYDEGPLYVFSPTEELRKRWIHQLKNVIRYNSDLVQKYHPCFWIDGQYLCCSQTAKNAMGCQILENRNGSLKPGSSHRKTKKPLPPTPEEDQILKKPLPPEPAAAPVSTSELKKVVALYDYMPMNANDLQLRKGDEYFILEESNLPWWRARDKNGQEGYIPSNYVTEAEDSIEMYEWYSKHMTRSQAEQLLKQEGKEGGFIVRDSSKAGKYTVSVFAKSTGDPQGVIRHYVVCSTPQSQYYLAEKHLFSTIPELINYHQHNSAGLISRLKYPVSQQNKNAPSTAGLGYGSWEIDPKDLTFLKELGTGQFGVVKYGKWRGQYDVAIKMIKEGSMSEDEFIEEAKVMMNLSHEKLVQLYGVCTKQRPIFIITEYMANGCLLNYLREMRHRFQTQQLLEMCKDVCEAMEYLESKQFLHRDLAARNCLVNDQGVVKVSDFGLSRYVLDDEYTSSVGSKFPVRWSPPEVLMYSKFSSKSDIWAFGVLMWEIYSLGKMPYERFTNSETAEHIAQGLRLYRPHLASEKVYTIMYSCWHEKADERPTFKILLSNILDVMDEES

Consider `Nc1nccc2c1n(-c1ccc(Oc3ccccc3)cc1)c(=O)n2[C@@H]1CCCN(C(=O)/C=C/CF)C1` [Compound 002], for which the values for the 50% inhibitory concentration (IC50) in data set [1] and in data set [3] were 1.65 nM and 3.6 nM, respectively. Besides, the “Unbound PPB” value in data set [2] came out at 1.3%.
